{"source": "paper PMC10648586", "about": "“Jasmone Is a Ligand-Selective Allosteric Antagonist of Aryl Hydrocarbon Receptor (AhR)” (International Journal of Molecular Sciences, 2023)", "biological_target": "T1, mouse AhR (mAhr) (Mus musculus, UniProt P30561)", "T1 construct": "cytosolic protein from Hepa1c1c7 cells", "T1 sequence (P30561 10-848)": "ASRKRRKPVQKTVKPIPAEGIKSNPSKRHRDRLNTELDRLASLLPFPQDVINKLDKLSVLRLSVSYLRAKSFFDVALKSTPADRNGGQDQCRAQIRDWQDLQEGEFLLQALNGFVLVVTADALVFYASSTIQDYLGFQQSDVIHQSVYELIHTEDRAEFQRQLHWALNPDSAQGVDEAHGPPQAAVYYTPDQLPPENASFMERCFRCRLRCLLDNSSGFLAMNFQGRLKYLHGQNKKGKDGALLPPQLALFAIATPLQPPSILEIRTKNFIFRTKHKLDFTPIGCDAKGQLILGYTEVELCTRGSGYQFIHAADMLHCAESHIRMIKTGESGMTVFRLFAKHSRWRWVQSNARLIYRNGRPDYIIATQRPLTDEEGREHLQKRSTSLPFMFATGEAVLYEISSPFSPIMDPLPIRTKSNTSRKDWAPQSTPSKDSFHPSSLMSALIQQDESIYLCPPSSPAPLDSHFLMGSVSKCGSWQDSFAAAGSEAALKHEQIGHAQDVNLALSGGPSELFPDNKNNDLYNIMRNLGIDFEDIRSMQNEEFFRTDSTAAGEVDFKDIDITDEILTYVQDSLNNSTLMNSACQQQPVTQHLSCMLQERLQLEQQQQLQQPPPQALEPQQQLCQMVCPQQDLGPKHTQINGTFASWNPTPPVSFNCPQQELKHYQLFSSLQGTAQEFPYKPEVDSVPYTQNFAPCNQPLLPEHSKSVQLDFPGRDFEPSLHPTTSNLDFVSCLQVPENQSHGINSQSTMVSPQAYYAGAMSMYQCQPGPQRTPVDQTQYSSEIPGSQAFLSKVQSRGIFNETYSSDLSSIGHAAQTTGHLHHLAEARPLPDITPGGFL", "test": "[3H]-TCDD competitive radioligand binding; partial displacement (about […]) at […]", "note": "pIC50: −log10 of the molar value."}
{"smiles": "CC/C=C\\CC1=C(C)CCC1=O", "note": "[jasmone, 3-methyl-2-[(2Z)-pent-2-en-1-yl]cyclopent-2-en-1-one]", "values": [{"measurement": "pIC50", "value": "< 3.22"}]}
